For assay [1], the target named is Muscarinic acetylcholine receptor M3 (Homo sapiens, UniProt P20309). Description: Displacement of [3H]NMS from human muscarinic M3 receptor expressed in CHO cells. The class given is cell-based.
For assay [2], the target named is T1, Muscarinic acetylcholine receptor M5 (Homo sapiens, UniProt P08912).
T1 sequence (P08912 whole entry): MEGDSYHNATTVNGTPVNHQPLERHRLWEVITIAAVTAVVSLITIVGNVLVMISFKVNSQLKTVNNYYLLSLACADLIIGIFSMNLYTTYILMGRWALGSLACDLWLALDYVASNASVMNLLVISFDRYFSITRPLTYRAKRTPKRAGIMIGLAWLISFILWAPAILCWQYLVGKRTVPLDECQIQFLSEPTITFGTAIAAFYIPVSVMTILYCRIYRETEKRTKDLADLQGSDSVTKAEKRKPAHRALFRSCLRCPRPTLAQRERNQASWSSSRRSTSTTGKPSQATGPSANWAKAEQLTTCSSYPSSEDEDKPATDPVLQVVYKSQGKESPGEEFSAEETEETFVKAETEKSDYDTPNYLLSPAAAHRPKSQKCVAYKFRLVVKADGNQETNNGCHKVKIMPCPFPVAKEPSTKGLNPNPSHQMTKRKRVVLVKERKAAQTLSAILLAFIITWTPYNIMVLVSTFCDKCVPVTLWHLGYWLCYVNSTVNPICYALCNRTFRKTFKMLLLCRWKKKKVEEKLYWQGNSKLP
Description: Displacement of [3H]NMS from human muscarinic M5 receptor expressed in CHO cells. The class given is cell-based.

For assay [3], the target named is T2, Muscarinic acetylcholine receptor M2 (Homo sapiens, UniProt P08172).
T2 sequence (P08172 whole entry): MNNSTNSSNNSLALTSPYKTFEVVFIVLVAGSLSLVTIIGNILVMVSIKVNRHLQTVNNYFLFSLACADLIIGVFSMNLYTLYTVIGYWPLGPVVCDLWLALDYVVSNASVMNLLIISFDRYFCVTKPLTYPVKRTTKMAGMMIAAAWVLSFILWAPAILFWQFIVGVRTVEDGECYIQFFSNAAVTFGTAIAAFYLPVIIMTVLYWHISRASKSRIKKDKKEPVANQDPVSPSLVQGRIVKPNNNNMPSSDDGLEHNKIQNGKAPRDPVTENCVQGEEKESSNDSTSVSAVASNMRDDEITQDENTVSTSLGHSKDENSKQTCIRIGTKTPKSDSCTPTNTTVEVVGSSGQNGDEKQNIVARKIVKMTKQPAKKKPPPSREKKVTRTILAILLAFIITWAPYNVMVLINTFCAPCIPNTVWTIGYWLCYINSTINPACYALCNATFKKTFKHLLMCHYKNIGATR
Put plainly: Displacement of [3H]NMS from human muscarinic M2 receptor expressed in CHO cells. The assay is classed as cell-based. On the technique in general: Loss of bound radioactivity is the signal in a displacement assay; it reports binding, not function.

Assay [4] can be described thus: Antagonist activity against muscarinic M4 receptor in guinea pig lung strip assessed as effect on electrically-stimulated contraction. The class given is functional, Cavia porcellus.
Assay [5] in a line: Antagonist activity against muscarinic M2 receptor in guinea pig atria assessed as effect on electrically-stimulated atria. The class given is functional, Cavia porcellus.
The nature of assay [6]: Antagonist activity against muscarinic M3 receptor in guinea pig ileum assessed as effect on ileum tension. The class given is functional, Cavia porcellus.
For assay [7], the target named is T3, Muscarinic acetylcholine receptor M4 (Homo sapiens, UniProt P08173).
T3 sequence (P08173 whole entry): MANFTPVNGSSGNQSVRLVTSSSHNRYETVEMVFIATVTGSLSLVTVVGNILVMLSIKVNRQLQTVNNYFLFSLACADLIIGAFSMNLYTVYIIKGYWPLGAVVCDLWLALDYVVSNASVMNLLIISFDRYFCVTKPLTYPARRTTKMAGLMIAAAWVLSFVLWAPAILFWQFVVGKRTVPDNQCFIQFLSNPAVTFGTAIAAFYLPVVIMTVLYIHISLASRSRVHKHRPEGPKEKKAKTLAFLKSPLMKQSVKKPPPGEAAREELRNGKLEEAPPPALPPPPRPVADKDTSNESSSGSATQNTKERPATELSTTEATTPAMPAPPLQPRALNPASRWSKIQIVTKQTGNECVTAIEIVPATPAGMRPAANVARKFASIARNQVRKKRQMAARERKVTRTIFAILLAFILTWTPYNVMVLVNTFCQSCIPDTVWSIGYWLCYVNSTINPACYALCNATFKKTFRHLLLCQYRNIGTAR
Description: Displacement of [3H]NMS from human muscarinic M4 receptor expressed in CHO cells. The assay is classed as cell-based.

Assay [8] addresses T4, Muscarinic acetylcholine receptor M1 (Homo sapiens, UniProt P11229).
T4 sequence (P11229 whole entry): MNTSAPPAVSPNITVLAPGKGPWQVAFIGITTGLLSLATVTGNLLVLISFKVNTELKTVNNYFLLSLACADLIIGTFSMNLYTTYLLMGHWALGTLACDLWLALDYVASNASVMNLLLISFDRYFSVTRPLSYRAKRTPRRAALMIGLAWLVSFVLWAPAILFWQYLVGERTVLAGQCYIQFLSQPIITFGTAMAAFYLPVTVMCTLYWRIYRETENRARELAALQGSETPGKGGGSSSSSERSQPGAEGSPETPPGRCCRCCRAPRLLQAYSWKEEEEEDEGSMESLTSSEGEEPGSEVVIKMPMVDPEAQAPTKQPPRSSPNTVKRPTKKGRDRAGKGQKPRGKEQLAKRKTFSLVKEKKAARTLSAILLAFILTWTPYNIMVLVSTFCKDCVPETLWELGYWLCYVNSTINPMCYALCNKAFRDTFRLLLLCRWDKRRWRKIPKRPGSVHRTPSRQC
Put plainly: Displacement of [3H]NMS from human muscarinic M1 receptor expressed in CHO cells. The assay is classed as cell-based.

Usually Ki stands for a measure of affinity in units of concentration, obtained from inhibition or displacement. In general, pKb refers to the Kb on a negative log10 scale, so that one unit is a factor of ten.

Each structure is given as a SMILES string.

Muscarinic acetylcholine receptor M3, sequence (P20309 whole entry): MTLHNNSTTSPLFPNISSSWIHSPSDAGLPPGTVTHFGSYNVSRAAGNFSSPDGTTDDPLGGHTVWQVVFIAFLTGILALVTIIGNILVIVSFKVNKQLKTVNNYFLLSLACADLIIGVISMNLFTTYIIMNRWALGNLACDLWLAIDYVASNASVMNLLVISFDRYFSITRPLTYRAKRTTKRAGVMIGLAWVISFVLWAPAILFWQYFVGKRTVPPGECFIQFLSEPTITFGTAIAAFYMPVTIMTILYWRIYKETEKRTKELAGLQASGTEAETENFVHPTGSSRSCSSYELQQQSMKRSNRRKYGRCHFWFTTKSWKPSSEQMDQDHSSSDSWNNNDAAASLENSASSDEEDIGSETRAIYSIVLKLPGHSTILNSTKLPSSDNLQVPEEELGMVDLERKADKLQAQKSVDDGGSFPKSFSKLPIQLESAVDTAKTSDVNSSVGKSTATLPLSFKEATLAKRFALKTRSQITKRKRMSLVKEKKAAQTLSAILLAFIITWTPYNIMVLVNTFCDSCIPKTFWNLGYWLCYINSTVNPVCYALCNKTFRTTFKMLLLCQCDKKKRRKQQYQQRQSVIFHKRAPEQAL

As for `C[N+]1(C)CCC[C@H]1[C@H]1C[S+]([O-])C(c2ccccc2)(c2ccccc2)O1.[I-]` (stereo in doubt; (+)-10), the Ki in assay [1] is 209 nM; in assay [2], 91.2 nM; in assay [3], 141 nM; in assay [7] it was 209 nM; in assay [8] it was 29.5 nM. Also, the pKb stood at 5.54 in assay [4], 7.2 in assay [5] and 6.95 in assay [6].

For the origin of these results see ChEMBL document CHEMBL1150330, “Muscarinic antagonists with multiple stereocenters: Synthesis, affinity profile and functional activity of isomeric 1-methyl-2-(2,2-alkylaryl-1,3-oxathiolan-5-yl)pyrrolidine sulfoxide derivatives” (Bioorg Med Chem, 2008).
